{
  "source": "patent US20240117313A1",
  "about": "“METHOD FOR PRODUCING THREE-DIMENSIONAL TISSUE BODY AND METHOD FOR PROMOTING DIFFERENTIATION OF ADIPOSE-DERIVED STEM CELLS” (TOPPAN INC., priority 2021, published 2024)",
  "key": {"[1]": {"tested_on": "subcutaneous fat-derived stein cells", "conditions": "for adipogenesis (fat staining with Nile red): FIG. 5", "protocol": "(§1) Onto a 96-well plate (manufactured by IWAKI), 2 μL of FBS-free DMEM containing 1.2% by weight (final concentration) of the defibered collagen component, 6 mg/mL (final concentration) fibrinogen, 3 U/mL (final concentration) thrombin, and 5×10^6 cells/mL of subcutaneous fat-derived stein cells was seeded and incubated for 15 minutes, 200 μL of DMEM culture medium was then added, and culture was performed for 48 hours."}, "[2]": {"tested_on": "subcutaneous fat-derived stein cells", "conditions": "day 7 of differentiation", "protocol": "as §1\nThe three-dimensional tissue constructs obtained were each subjected to fat staining with Nile red, and Hoechst staining for staining nuclei. In the same manner as in Production Example 1, fluorescence intensity for fat staining (Nile red) relative to fluorescence intensity for nucleic staining (Hoechst) was calculated, and increase rates of fluorescence intensity with reference to that of the three-dimensional tissue constructs cultured in DMEM culture medium containing no ALK5 inhibitor were calculated (three samples were used for each conditions)."}},
  "note": "Read-outs that look alike come from different tables or passages of the source.",
  "data": [
    {"smiles": "Cc1cccc(-c2n[nH]cc2-c2ccc3ncccc3n2)n1", "note": "[ALK5 inhibitor, 2-[3-(6-methyl-2-pyridinyl)-1H-pyrazol-4-yl]-1,5-naphthyridine]", "values": [
      {"measurement": "adipogenesis (fat staining with Nile red)", "setting": "[1]; ALK5 inhibitor 5 μM with seven fatty acids each in 50 IIM, day 3, day 7 and day 14 of differentiation", "result": "had proceeded"},
      {"measurement": "difference in increase rates of fluorescence intensity between day 7 and day 14 of culture", "setting": "[1]; ALK5 inhibitor 5 μM, FIG. 6", "result": "No large difference"},
      {"measurement": "adipogenesis (fat staining with Nile red)", "setting": "[1]; ALK5 inhibitor 5 μM, day 7 of culture and day 14 of culture (in particular)", "result": "had more proceeded"},
      {"measurement": "increase in fluorescence intensity vs medium containing no ALK5 inhibitor", "setting": "[1]; ALK5 inhibitor 5 μM, day 7 of culture and day 14 of culture, FIG. 6", "result": "significant"},
      {"measurement": "increase in fluorescence intensity (Nile red relative to Hoechst)", "setting": "[2]; 5 μM or more of the ALK5 inhibitor in DMEM with seven fatty acids each 50 μM, vs no ALK5 inhibitor, FIG. 4", "result": "≥ 3", "unit": "fold"},
      {"measurement": "adipogenesis (fat staining with Nile red)", "setting": "[2]; ALK5 inhibitor 1, 5 or 10 μM in DMEM with seven fatty acids each 50 μM, vs medium containing no ALK5 inhibitor, FIG. 3", "result": "had proceeded more"},
      {"measurement": "differentiation of fat-derived stein cells into mature adipocytes", "setting": "[2]; addition of the ALK5 inhibitor to DMEM with seven fatty acids each 50 μM", "result": "promoted"}
    ]}
  ]
}
